Patent US5869336A, “Recombinant enzymatically active calpain expressed in a baculovirus system” (Cephalon, Inc., priority 1997, dated 1999)
Like-named read-outs stand apart in the source and are kept apart here. Where a SMILES comes first, the peptide text is derived from it. [ ]: non-standard residue; d: D form. The star is where a group is joined. Sta = CC(C)C[C@H](N)[C@@H](O)CC(=O)O; Isovaleryl = CC(C)CC(=O)*; Nle = CCCC[C@H](N)C(=O)O

Legend:
[1] = imidazole-HCl/EGTA buffer, pH 7.3; used for approximating [Ca2+]; read-out: Kd of EGTA for calcium; cited from earlier work
[2] = molecular target: T1, recombinant human calpain I (Homo sapiens, UniProt P07384); experiment: Inhibitor profile: inhibition of Succ-Leu-Tyr-MNA hydrolysis by recombinant calpain I; type: biochemical; settings: for difference in IC50 values with respect to the known calpain inhibitors / inhibition of activity: recombinant enzyme
T1 construct: the 2153 bp fragment containing the entire human 80 kDa calpain I cDNA; made in house; host or cells: Spodoptera frugiperda Sf21 cells, recombinant baculovirus (AcNPV-hCANPI-2-5, or coinfection with AcNPV-hCANP30-5 and AcNPV-hCANPI80-5)
T1 sequence (P07384 2-714): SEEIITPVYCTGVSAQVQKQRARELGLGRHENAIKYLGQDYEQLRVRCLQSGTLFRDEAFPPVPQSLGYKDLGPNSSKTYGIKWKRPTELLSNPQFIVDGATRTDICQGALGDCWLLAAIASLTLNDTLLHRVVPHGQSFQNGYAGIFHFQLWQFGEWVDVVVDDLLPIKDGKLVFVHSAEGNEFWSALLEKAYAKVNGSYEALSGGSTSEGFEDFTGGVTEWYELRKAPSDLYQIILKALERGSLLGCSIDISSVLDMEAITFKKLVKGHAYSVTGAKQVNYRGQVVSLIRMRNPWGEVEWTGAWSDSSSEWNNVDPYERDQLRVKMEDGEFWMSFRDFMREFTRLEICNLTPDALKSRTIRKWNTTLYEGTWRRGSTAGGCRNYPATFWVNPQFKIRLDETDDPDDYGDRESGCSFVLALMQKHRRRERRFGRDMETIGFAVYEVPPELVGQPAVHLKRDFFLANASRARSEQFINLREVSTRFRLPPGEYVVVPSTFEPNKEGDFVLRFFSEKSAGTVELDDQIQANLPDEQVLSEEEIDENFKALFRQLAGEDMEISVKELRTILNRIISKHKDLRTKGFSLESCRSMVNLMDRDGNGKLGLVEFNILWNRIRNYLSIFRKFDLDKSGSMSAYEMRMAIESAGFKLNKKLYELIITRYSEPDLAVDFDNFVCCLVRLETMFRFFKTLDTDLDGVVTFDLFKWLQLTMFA
T1 sequence (P04632 1-268 partner): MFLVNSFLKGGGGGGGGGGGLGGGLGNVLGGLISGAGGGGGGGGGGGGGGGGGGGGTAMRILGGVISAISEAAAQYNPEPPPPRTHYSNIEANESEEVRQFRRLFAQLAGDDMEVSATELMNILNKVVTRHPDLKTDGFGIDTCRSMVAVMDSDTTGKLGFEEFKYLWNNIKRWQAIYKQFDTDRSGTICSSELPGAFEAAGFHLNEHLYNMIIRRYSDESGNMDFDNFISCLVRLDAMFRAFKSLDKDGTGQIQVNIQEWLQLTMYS
Procedure: (§1) To evaluate inhibitor sensitivities, stocks (40 times concentrated) of each inhibitor to be tested were prepared in 100% anhydrous DMSO and 5 μl of each inhibitor preparation were aliquoted into each of three wells of a 96 well plate. Dilutions of each enzyme preparation were made into assay buffer (i.e., 50 mM Tris, 50 mM NaCl, 1 mM EDTA, 1 mM EGTA, and 5 mM β-mercaptoethanol, pH 7.5 including 0.2 mM Succ-Leu-Tyr-MNA) and 175 μl of each dilution aliquoted into the same wells containing the independent inhibitor stocks as well as to positive control wells containing 5 μl DMSO, but no inhibitor. To start the reaction, 20 μl of 50 mM CaCl2 in assay buffer was added to all wells of the plate, excepting three, which were used as background signal baseline controls. Substrate hydrolysis was monitored every 5 minutes for a total of 30 minutes. […] The rate of hydrolysis was determined as the change in fluorescence units per the 10 minute time period between 5 and 15 minutes. At each inhibitor concentration tested, the percent inhibition was determined as the percent decrease in the rate of substrate hydrolysis in the presence of inhibitor versus the rate in its absence. […] Prototypic inhibitors of serine (PMSF) and aspartic proteases (pepstatin A) were also included in this determination.

native calpain I = molecular target: T2, native calpain I (Homo sapiens, UniProt P07384); experiment: Inhibitor profile: inhibition of Succ-Leu-Tyr-MNA hydrolysis by native calpain I; type: biochemical; settings: for difference in IC50 values with respect to the known calpain inhibitors / inhibition of activity: native enzyme
T2 construct: Native and recombinant enzymatically active calpain I were compared; from tissue; host or cells: human erythrocytes (red blood cells)
T2 sequence (P07384 2-714): T1 sequence (P07384 2-714)
T2 sequence (P04632 1-268 partner): T1 sequence (P04632 1-268 partner)
Procedure: as §1

[3] = molecular target: T1, recombinant human calpain I; experiment: Calcium-dependent protease activity (Succ-Leu-Tyr-AMC), recombinant calpain in Sf21 cell extracts; type: biochemical; settings: 12.5 μM calpain inhibitor I; recombinant, coinfected or AcNPV-hCANPI-2-5; FIGS. 5c, 5d
Procedure: (§2) Sf21 cells were again seeded in 24 well plates at 1.5×10^5 cells/cm^2 and infected with either wild-type virus, coinfected with both AcNPV-hCANP30-5 and AcNPV-hCANPI80-5 (MOI of 5 for each virus), or infected with AcNPV-hCANPI-2-5 (MOI=5.7). The intracellular proteins were harvested at 40 hours after infection with 100 μl/well of the following lysis buffer: 50 mM Tris-HCl, pH 7.5, 50 mM NaCl, 1 mM EDTA, 1 mM EGTA, 5 mM β-mercaptoethanol, 0.1% Triton-100, followed by a 10 minutes centrifugation at 14,000×g at 4° C. to pellet the nuclei and some membranes. The in vitro enzyme activity of 20 μl of each extract (12.5-20 μg of total protein) was measured using the synthetic peptide substrate succinyl-leucine-tyrosine-aminomethyl coumarin (Succ-Leu-Tyr-AMC) at a 1 mM concentration with and without the addition of 5 mM CaCl2 following the procedure of Sasaki et al., J. Biol. Chem., 259:12489-12494 (1984), incorporated herein by reference. The activity obtained was compared with the enzyme activity of 2 μg of partially-purified native human calpain I produced according to the method of Siman et al., supra.
(§3) The activity in the presence of calcium was also measured with the addition of 12.5 μM calpain inhibitor I following the procedure disclosed in Sasaki et al., supra. The results are depicted in FIGS. 5a-d. In FIGS. 5a-d, open circles represent activity without calcium present. […]

neurons = settings: rats, clamping both carotid arteries and lowering arterial blood pressure; cited from earlier work
[4] = system: recombinant 80 kDa subunit of calpain I; experiment: Enzymatic activity of independently expressed 80 kDa subunit (Succ-Leu-Tyr-AMC); type: biochemical, human; settings: 12.5 μM calpain inhibitor I; 33 μg unfractionated extract; FIG. 8
Procedure: as §2, with “The activity obtained was compared with the enzyme activity of 2 μg of partially-purified native human calpain I produced according to the method of Siman et al., supra.” left out
To determine the relative activity of the recombinantly produced 80 kDasubunit, the enzymatic activity of the subunit was examined in unfractionated extracts from Sf21 cells infected with AcNPV-hCANPI80-5. […] The same amount of enzyme activity for both the recombinant 80 kDa subunit and the recombinant calpain was then run on SDS-PAGE and the amount of each was qualitatively determined by immunoblot analysis as described in Example 4 above. […]

native human calpain I [5] = experiment: Calcium-dependent protease activity (Succ-Leu-Tyr-AMC), native calpain I; type: biochemical; settings: 12.5 μM calpain inhibitor I; native human calpain I; FIG. 5a
Procedure: as §2, §3

[6] = system: EAA-induced protein breakdown; settings: in vivo; cited from earlier work
calpain = settings: in vivo; cited from earlier work
[7] = system: vulnerable hippocampal neurons; settings: in vivo; cited from earlier work
cells = settings: cited from earlier work
rat Na,K-ATPase = settings: enzyme from insect cells; cited from earlier work
[8] = molecular target: T1, recombinant human calpain I; experiment: Calcium activation of recombinant calpain (Succ-Leu-Tyr-MNA hydrolysis); type: biochemical; settings: pH 7.3, 1 mM Succ-Leu-Tyr-MNA, approximation based on Kd of EGTA, read-out: concentration of calcium required to give 1/2 Vmax
Procedure: (§4) To determine the calcium concentration required for enzyme activity, tests were performed essentially as described by Kitahara et al., J. Biochem., 95:1759-1766 (1984). First, enzyme preparations were dialyzed overnight against 110 mM imidazole-HCl/1 mM EGTA buffer at pH 7.3 containing 5 mM β-mercaptoethanol. Ten-fold concentrated Ca^2+ /EGTA buffers were prepared by adding varying amounts of CaCl2 to the imidazole/EGTA buffer. Twenty μl of each buffer was put into three wells of a 96 well plate. Dilutions of dialyzed enzyme were made into the imidazole/EGTA buffer containing 1 mM Succ-Leu-Tyr-MNA and 180 μl of each preparation were added to the wells containing the various Ca/EGTA buffers. Substrate hydrolysis was measured every 5 minutes for 30 minutes. The 1/2 Vmax was determined as the rate of substrate hydrolysis which was 50% of the maximal rate achieved in the presence of the varying amounts of calcium. […] The [Ca^2+ ] activation profiles for both the native and recombinant enzymes are virtually identical. In FIG. 9, open squares with interior open circles represent recombinant human calpain I (rhCANPI). Shaded squares with interior open circles represent native human calpain I (nhCANPI).

native human calpain I [9] = experiment: Calcium activation of native calpain (Succ-Leu-Tyr-MNA hydrolysis); type: biochemical; settings: pH 7.3, 1 mM Succ-Leu-Tyr-MNA, approximation based on Kd of EGTA, read-out: concentration of calcium required to give 1/2 Vmax
Procedure: as §4

[10] = Recombinant calpain, 0.2 mM Succ-Leu-Tyr-MNA, rate between 5 and 15 minutes, read-out: IC50
[11] = Native calpain, 0.2 mM Succ-Leu-Tyr-MNA, rate between 5 and 15 minutes, read-out: IC50

Compound: O=C(O)CN(CCOCCOCCN(CC(=O)O)CC(=O)O)CC(=O)O [EGTA]
- Kd [1]: 5.5 µM

Compound: O=S(=O)(F)Cc1ccccc1 [PMSF, phenylmethylsulfonyl fluoride]
- IC50 [2]: > 1000 µM
- difference in IC50 values with respect to the known calpain inhibitors [2]: 5-6 fold order of magnitude
- inhibition of activity [2]: insignificant inhibition
- IC50 (native calpain I): > 1000 µM
- difference in IC50 values with respect to the known calpain inhibitors (native calpain I): 5-6 fold order of magnitude
- inhibition of activity (native calpain I): insignificant inhibition

Compound: CC(C)CC(=O)N[C@H](C(=O)N[C@H](C(=O)N[C@@H](CC(C)C)[C@@H](O)CC(=O)N[C@@H](C)C(=O)N[C@@H](CC(C)C)[C@@H](O)CC(=O)O)C(C)C)C(C)C [Pepstatin A] (Isovaleryl-VV[Sta]A[Sta]-OH)
- IC50 [2, 10]: > 10 µM
- difference in IC50 values with respect to the known calpain inhibitors [2]: 5-6 fold order of magnitude
- inhibition of activity [2]: insignificant inhibition
- IC50 (native calpain I; [11]): > 10 µM
- difference in IC50 values with respect to the known calpain inhibitors (native calpain I): 5-6 fold order of magnitude
- inhibition of activity (native calpain I): insignificant inhibition

Compound: CC(C)C[C@H](NC(=O)OCc1ccccc1)C(=O)N[C@@H](CC(C)C)C(=O)N[C@@H](Cc1ccccc1)C(=O)C[S+](C)C [Z--Leu--Leu--Phe--CH2 S(+)Me2 Br(-), Z-Leu-Leu-Phe-CH2 S(+)Me2 Br(-)]
- IC50 [2, 10]: 0.008 µM
- IC50 (native calpain I; [11]): 0.014 µM

Compound: CCCC[C@@H](C=O)NC(=O)[C@H](CC(C)C)NC(=O)OCc1ccccc1 [Z--Leu--Nle--H, Z-Leu-Nle-H]
- IC50 [2, 10]: 0.01 µM
- IC50 (native calpain I; [11]): 0.014 µM

Compound: CCNC(=O)C(=O)[C@H](Cc1ccccc1)NC(=O)[C@H](CC(C)C)NC(=O)OCc1ccccc1 [Z--Leu--Phe--CONHEt, Z-Leu-Phe-CONHEt]
- IC50 [2]: 0.034 µM
- IC50 (native calpain I): 0.056 µM

Compound: CCCC[C@@H](C=O)NC(=O)[C@H](CC(C)C)NC(=O)[C@H](CC(C)C)NC(C)=O [calpain inhibitor I] (Ac-Leu-Leu-[Nle]-aldehyde)
- inhibition of calcium-dependent substrate hydrolysis [3]: also inhibited
- protection of neurons against ischemic and hypoxic damage (neurons): protected neurons against ischemic and hypoxic damage
- inhibition of activity [4]: completely inhibited
- inhibition of calcium-dependent substrate hydrolysis (native human calpain I [5]): inhibited

Compound: CC(=O)N[C@@H](CC(C)C)C(=O)N[C@@H](CC(C)C)C(=O)N[C@H](C=O)CCCNC(=N)N [leupeptin]
- lowering EAA-induced protein breakdown [6]: unsuccessful
- protection of neurons against ischemic and hypoxic damage (neurons): protected neurons against ischemic and hypoxic damage
- block of trauma-evoked calpain response (calpain): block a trauma-evoked calpain response in vivo
- protection against degeneration of hippocampal neurons after ischemia [7]: protected against the degeneration of vulnerable hippocampal neurons after ischemia
- uptake by cells (cells): failed to enter the cells

Compound: Na,K-ATPase: functional rat Na,K-ATPase expressed using the baculovirus expression system
- activity relative to enzyme from dog kidney outer medulla (rat Na,K-ATPase): 20-25%

Compound: calcium
- EC50 [8]: 14 µM
- EC50 (native human calpain I [9]): 15 µM

Compound: calpastatin
- uptake by cells (cells): not readily taken up by cells
